Experimental data reported in patent US20260276656A1, “GUT MICROBIOTA-RELATED METHODS FOR TREATING DEMENTIA AND AGE-DEPENDENT COGNITIVE DECLINE” (Albert-Ludwigs-Universitat Freiburg, priority 2019, published 2026).

Tests used:
[1] = tested on: C57BL/6J mice; assay: T-maze spontaneous alternation test (spatial working memory); format: in vivo, mouse; settings: for spatial working memory (T maze test): systemic (intraperitoneal) injection, FIG. 11 left; for T maze performance: 5 mg/kg i.p. 1 h before
Method: In order to acutely deplete the gut microbiota, 15-16 months old SPF males were treated via oral gavage with a mixture of antibiotics (ABX), containing Cefoxitin (Santa Cruz Biotechnology), Gentamicin (Sigma-Aldrich) Metronidazole (Sigma-Aldrich), and Vancomycin (Hikma-pharma), each 10 mg/kg in sterile 1×PBS, for three consecutive days. On the fourth day, the mice were treated with one dose of Clindamycin hydrochloride (33.3 mg/kg) (Sigma-Aldrich). Fecal microbiota transplantations (FMTs) were started 24 h later. To deplete csf1-dependent cells in vivo, including microglia, mice were provided with CSF1R-inhibitor PLX5622 (Plexxicon Inc.) mixed into AIN-76A standard chow at 1200 mg/kg (Research Diets Inc.) ad libitum. Respective controls received AIN-76A standard chow. Mice were injected with 5 mg/kg δ-valerobetaine (MCAT, Germany) 1 h before behavioral testing.
For microbiota depletion studies, SPF mice were treated with 1 mg/ml of ampicillin (Auromedics), neomycin sulfate (Fisher), streptomycin (Sigma) and 0.5 mg/ml of vancomycin (Sagent) in the drinking water for 4-5 weeks (Khosravi et al., 2014). These mice were recolonized via FMT, which was achieved by oral gavage of a faecal slurry. Recipient mice had the food removed from the cage for 2 h prior to FMT. The faecal slurry was obtained by pooling faecal pellets from 8-14 donor mice. The pellets were weighed and resuspended by vortexing for 1 min in 1 mL PBS per 300 mg of faeces. After pelleting larger particles by centrifugation at 500×g for 5 min, the supernatant was collected for FMT. Each recipient mouse received 150 μl of faecal slurry by oral gavage. The remaining slurry was stored at −80° C. for 16S rRNA sequencing. Following FMT, the cages of recipient mice were replenished with dirty bedding and fresh faecal pellets from donor mice once and twice a week, respectively. Faecal pellets for 16S rRNA sequencing were collected the day before FMT and at the end of the experiment and were stored at −80° C. for DNA extraction. For re-colonization of ABX treated mice, FMTs from 8 weeks old or 15-16 months old males were undergone. Fresh fecal pellets are collected under a sterile hood and directly thoroughly homogenized in 0.1% L-Cysteine hydrochloride monohydrate in 1×PBS in order to maintain anaerobic microbes. The homogenates were spun down for 1 min, 200 g at 4° C. and the turbid supernatant was used to orally and rectally gavage the recipient mice. The FMT was performed twice 72 h apart.
NNN-trimethyl-5-aminovalerate was dissolved in 0.9% NaCl and administered i.p. at a dose of 200 mg/kg in a volume of 10 ml/kg. As control the vehicle NaCl was injected.
Mice were tested 40 min after drug- or vehicle injection or 4 weeks after FMT. We first performed the training run for the Novel-object recognition test, followed by the T maze test and then 6 h after the training session mice were tested in the Novel object recognition test. Spatial working memory was tested using the continuous spontaneous alternation task in a T-maze as described previously (Spowart-Manning, L. et al). Briefly, animals were set into the base of a T-maze and allowed to explore a randomly assigned T-maze arm until it returned to the base arm. Subsequently, the blocked arm was opened, and the animal was allowed to explore the complete maze. Once one arm of the T-maze was entered, the other arm was blocked until the animal returned to the base arm. Then, the exit of the base arm was blocked for 5 s and the animal was allowed to explore the maze again. The experiment was stopped after 14 free choice arm entries. Arm entries were scored as alternations if an animal chose the opposing arm compared to the arm visited immediately prior to the scored instance. The Novel Object Recognition (NOR) task was applied to evaluate recognition memory as published previously (Antunes, M. & Biala, G. et al). During the habituation phase, each mouse was allowed to explore two similar objects within a total exploration time of 20 s. […]

[2] = tested on: prelimbic or infralimbic cortex of the mPFC; assay: In vivo recordings from prelimbic or infralimbic cortex, spike-spike synchronization; set-up: species or system mouse; settings: systemic application (intraperitoneally); n=9 mice; FIG. 8
Method: C57BL/6J mice aged 10-11 weeks were anesthetized with isofluorane (induction: 3%, maintenance approximately 1.5%). Buprenorphin (0.05-0.1 mg/kg body weight) and Carprofen (4-5 mg/kg body weight) were injected for analgesia. During implantation, the body temperature was maintained with a heating pad. The skin was incised from the cerebellum to the nose and the bone cleaned with 3% H2O2. Ground and reference screws (1 mm diameter) were inserted anterior to the lambdoid suture. A third stabilizing screw was inserted on the left parietal bone. A microdrive loaded with 8 tetrodes made from tungsten wire (California Fine Wire Company) was inserted in the right prefrontal cortex at the coordinates AP+1.9, ML 0.4, DV−1.2 (from brain surface). The craniotomy was protected with vaseline and the microdrive fixed to the skull using dental cement. After the surgery, the mice were injected with buprenorphin and carprofen subcutaneously for 48 h hours and housed individually.
Local field potential were recorded with a wireless amplifier system (W4, Multichannel Systems) 2-21 days after surgery at a sampling rate of 2 kHz or with a wired recording system (RHD2000, Intan Technologies, sampling rate 10 kHz) on freely moving mice. Single-unit activity was recorded at 20-30 kHz using a 32-channel amplifier system (RHD2000, Intan Technologies). […]

Structure (SMILES): C[N+](C)(C)CCCCC(=O)[O-] [NNN-trimethyl-5-aminovalerate, 5-(trimethylammonio) pentanoate]
- T maze: improvement in learning and memory after FMT from young mice ([1]; old mice (15-16 months) +ABX+yFMT, 5 mg/kg i.p. 1 h before testing, FIG. 10F): abolished
- spatial working memory (T maze test) ([1]; old mice (20-24-month-old)): no additional impairing effects
- T maze performance ([1]; old mice that had received gut microbiota from old mice (old+ABX+oFMT), FIG. 10F): no additional deteriorating effect
- T maze performance ([1]; young adult mice (8 weeks), versus vehicle, FIG. 10B): significantly worse
- spatial working memory (T maze test) ([1]; young mice (2-month-old), PBS control): reduced
- spike-spike-synchronization [2]: enhanced
